Structures can show the parent of a compound that is named as a salt. Where two headings read alike, the source gives them in different places.

Among the data in patent US10023570B2 (Array BioPharma, Inc., priority 2015, dated 2018) are IC50 values, retold here.

Assay [1] concerns the target Kif5b-RET fusion protein in HEK-293 cells (Homo sapiens, UniProt P07949). As to the kind of experiment: cell-based.
Assay [2] deals with human KDR protein in HEK-293 cells (Homo sapiens (Human), UniProt P35968). In words: KDR Cell Assay (phospho-KDR in HEK-293 cells expressing inducible KDR). It is filed as cell-based. To be noted: pKDR Cell HEK 10% FBS IC50, HEK-293 cells expressing inducible KDR, VEGF stimulated. The procedure, abridged: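 HEK-293 cells with inducible human KDR were treated with compound for 1 h in DMEM (0.25% DMSO final), then lysed. Phospho-KDR was quantified by Meso Scale immunoassay, expressed as percent of control, and IC50 taken where a 4-parameter logistic fit crossed 50 POC.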

In assay [3] the target is N-terminal GST tagged recombinant human RET cytoplasmic domain (aa 658-end), wild type RET kinase (Homo sapiens (Human), UniProt P07949). As to the kind of experiment: RET Enzyme Assay (HTRF KinEASE-TK), wild type RET. It is filed as biochemical.
[4] abbreviates: HEK-293 cells expressing Kif5b-RET, read-out: KIF5B-RET pTYR1062 Cell IC50.

human KDR protein in HEK-293 cells, sequence (P35968 20-1356): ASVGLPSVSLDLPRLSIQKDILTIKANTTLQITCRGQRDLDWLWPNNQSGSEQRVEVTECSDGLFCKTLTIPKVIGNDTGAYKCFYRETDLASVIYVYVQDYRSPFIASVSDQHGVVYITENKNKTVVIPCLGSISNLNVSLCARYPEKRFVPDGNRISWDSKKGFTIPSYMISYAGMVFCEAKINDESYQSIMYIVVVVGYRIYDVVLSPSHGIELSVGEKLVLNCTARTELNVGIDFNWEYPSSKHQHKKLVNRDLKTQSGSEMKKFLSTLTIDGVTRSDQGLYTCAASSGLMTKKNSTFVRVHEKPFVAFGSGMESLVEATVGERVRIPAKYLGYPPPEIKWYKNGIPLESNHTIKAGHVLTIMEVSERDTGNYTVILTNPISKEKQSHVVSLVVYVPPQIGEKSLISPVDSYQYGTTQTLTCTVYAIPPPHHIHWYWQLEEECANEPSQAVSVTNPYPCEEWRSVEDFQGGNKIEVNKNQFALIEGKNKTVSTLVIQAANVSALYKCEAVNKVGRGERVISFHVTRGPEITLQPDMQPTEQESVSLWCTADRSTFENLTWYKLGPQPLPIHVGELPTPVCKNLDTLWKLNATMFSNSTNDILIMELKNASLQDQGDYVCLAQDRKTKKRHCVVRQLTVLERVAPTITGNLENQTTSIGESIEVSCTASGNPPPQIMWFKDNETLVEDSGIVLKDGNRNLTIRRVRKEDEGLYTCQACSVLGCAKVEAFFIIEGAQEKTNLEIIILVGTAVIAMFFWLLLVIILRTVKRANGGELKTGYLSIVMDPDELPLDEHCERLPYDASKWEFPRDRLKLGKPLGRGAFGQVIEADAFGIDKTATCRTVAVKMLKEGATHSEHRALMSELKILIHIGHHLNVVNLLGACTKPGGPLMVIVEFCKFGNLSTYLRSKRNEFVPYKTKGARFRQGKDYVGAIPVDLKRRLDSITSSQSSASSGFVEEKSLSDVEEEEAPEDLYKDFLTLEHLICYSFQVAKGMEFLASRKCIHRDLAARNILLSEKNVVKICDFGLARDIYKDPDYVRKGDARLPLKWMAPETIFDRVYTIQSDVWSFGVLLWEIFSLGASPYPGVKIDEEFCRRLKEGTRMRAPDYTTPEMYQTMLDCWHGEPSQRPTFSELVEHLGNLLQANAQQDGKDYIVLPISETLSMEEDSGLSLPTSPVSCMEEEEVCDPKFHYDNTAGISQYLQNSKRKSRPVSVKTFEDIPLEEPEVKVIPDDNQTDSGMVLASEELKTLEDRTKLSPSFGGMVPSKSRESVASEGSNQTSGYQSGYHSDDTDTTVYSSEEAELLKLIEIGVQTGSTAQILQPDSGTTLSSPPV
Kif5b-RET fusion protein in HEK-293 cells, sequence (P07949 29-1114 limits assumed): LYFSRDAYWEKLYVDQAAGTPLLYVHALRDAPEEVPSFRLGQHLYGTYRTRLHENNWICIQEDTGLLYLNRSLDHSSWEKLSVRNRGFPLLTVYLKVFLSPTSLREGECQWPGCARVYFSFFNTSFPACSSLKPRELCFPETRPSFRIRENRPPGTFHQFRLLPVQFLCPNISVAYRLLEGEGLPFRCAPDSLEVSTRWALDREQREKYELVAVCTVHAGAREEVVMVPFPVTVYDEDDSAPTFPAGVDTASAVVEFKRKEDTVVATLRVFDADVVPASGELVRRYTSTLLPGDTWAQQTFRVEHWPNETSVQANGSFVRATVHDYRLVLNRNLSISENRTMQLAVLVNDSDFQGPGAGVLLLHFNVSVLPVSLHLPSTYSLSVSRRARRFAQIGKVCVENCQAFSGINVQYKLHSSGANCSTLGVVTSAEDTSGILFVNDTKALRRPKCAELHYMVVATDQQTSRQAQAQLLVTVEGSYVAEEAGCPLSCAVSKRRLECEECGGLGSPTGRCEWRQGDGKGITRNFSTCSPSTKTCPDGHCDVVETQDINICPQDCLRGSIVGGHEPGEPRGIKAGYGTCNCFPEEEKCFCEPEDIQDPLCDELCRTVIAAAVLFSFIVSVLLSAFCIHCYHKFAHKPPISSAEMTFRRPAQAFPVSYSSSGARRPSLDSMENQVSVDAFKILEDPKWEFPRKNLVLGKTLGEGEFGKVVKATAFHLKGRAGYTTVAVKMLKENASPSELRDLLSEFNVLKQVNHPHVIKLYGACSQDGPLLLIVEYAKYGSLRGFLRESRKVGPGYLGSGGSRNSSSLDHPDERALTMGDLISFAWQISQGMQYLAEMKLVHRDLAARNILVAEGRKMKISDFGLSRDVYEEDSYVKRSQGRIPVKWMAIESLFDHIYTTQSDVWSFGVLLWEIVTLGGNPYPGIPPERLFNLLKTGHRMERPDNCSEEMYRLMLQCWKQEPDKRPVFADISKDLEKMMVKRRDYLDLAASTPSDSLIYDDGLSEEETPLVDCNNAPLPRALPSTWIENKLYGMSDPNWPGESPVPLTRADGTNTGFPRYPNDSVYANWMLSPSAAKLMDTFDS
N-terminal GST tagged recombinant human RET cytoplasmic domain (aa 658-end), wild type RET kinase, sequence (P07949 658-1114): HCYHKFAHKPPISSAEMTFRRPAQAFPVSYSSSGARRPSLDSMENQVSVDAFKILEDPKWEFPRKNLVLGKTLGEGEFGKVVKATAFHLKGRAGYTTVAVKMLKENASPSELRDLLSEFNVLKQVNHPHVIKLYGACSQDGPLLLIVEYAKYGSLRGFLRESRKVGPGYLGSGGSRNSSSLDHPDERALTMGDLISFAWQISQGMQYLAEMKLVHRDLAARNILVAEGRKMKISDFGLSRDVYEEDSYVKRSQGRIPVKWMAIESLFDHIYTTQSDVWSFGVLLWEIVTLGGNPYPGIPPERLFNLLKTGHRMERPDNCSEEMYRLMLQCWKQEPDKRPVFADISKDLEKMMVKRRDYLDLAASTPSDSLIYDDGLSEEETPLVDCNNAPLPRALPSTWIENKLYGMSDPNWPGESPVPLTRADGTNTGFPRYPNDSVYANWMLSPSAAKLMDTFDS

A word on the IC50: it is the point on the concentration scale where inhibition reaches its midpoint. As to `COC(C)(C)CN1CCN(c2ccc(-c3cc(-c4cnn(C)c4)cn4ncc(C#N)c34)cn2)CC1` [Example 414, 4-(6-(4-(2-methoxy-2-methylpropyl)piperazin-1-yl)pyridin-3-yl)-6-(1-methyl-1H-pyrazol-4-yl)pyrazolo[1,5-a]pyridine-3-carbonitrile], the IC50 is 41.5 nM in assay [1] (setting [4]); 2280 nM in assay [2]; 41.3 nM in assay [3] (wild type RET, 1 mM ATP).

Take `CO[C@@H](C)CN1CCN(c2ccc(-c3cc(-c4cnn(C)c4)cn4ncc(C#N)c34)cn2)CC1` [Example 415, (S)-4-(6-(4-(2-methoxypropyl)piperazin-1-yl)pyridin-3-yl)-6-(1-methyl-1H-pyrazol-4-yl)pyrazolo[1,5-a]pyridine-3-carbonitrile]: the IC50 in assay [1] (setting [4]) was determined as 25.4 nM; in assay [2], 2030 nM; in assay [3] (wild type RET, 1 mM ATP), 25.2 nM.

As for `Cn1cc(-c2cc(-c3ccc(N4CCN(CCOC(C)(C)C)CC4)nc3)c3c(C#N)cnn3c2)cn1` [Example 420, 4-(6-(4-(2-(tert-butoxy)ethyl)piperazin-1-yl)pyridine-3-yl)-6-(1-methyl-1H-pyrazol-4-yl)pyrazolo[1,5-a]pyridine-3-carbonitrile], the IC50 was determined as 5.6 nM in assay [1] (setting [4]); 792 nM in assay [2]; 10.9 nM in assay [3] (wild type RET, 1 mM ATP).

As to `Cc1cccc(CN2CCN(c3ccc(-c4cc(-c5cnn(C)c5)cn5ncc(C#N)c45)cn3)CC2)n1` [Example 433, 6-(1-methyl-1H-pyrazol-4-yl)-4-(6-(4-((6-methylpyridin-2-yl)methyl)piperazin-l-yl)pyridine-3-yl)pyrazolo[1,5-a]pyridine-3-carbonitrile], the IC50 came out at 6 nM in assay [1]; 1080 nM in assay [2]; 9.7 nM in assay [3] (wild type RET, 1 mM ATP).

On to `COc1ccccc1CN1CCN(c2ccc(-c3cc(-c4cnn(C)c4)cn4ncc(C#N)c34)cn2)CC1` [Example 451, 4-(6-(4-(2-methoxybenzyl)piperazin-1-yl)pyridin-3-yl)-6-(1-methyl-1H-pyrazol-4-yl)pyrazolo[1,5-a]pyridine-3-carbonitrile], for which the half-maximal inhibitory concentration (IC50) in assay [1] amounted to 4.9 nM; in assay [2], 593 nM; in assay [3] (wild type RET, 1 mM ATP), 4.9 nM.

As to `COc1ncccc1CN1CCN(c2ccc(-c3cc(-c4cnn(C)c4)cn4ncc(C#N)c34)cn2)CC1` [Example 452, 4-(6-(4-((2-methoxypyridin-3-yl)methyl)piperazin-1-yl)pyridin-3-yl)-6-(1-methyl-1H-pyrazol-4-yl)pyrazolo[1,5-a]pyridine-3-carbonitrile], the IC50 is 12.1 nM in assay [1] (setting [4]); 844 nM in assay [2]; 10 nM in assay [3] (wild type RET, 1 mM ATP).

As for `COc1ncc(F)cc1CN1CCN(c2ccc(-c3cc(-c4cnn(C)c4)cn4ncc(C#N)c34)cn2)CC1` [Example 457, 4-(6-(4-((5-fluoro-2-methoxypyridin-3-yl)methyl)piperazin-1-yl)pyridin-3-yl)-6-(1-methyl-1H-pyrazol-4-yl)pyrazolo[1,5-a]pyridine-3-carbonitrile], the IC50 in assay [1] (setting [4]) was 19.5 nM; in assay [2], 877 nM; in assay [3] (wild type RET, 1 mM ATP), 13.1 nM.

Take `COc1ccc(CN2CCN(c3ccc(-c4cc(-c5cnn(C)c5)cn5ncc(C#N)c45)cn3)CC2)nc1` [Example 458, 4-(6-(4-((5-methoxypyridin-2-yl)methyl)piperazin-1-yl)pyridin-3-yl)-6-(1-methyl-1H-pyrazol-4-yl)pyrazolo[1,5-a]pyridine-3-carbonitrile]: the IC50 in assay [1] worked out at 2.4 nM; in assay [2], 324 nM; in assay [3] (wild type RET, 1 mM ATP) it was 6.9 nM.

Regarding `COc1cccnc1CN1CCN(c2ccc(-c3cc(-c4cnn(C)c4)cn4ncc(C#N)c34)cn2)CC1` [Example 463, 4-(6-(4-((3-methoxypyridin-2-yl)methyl)piperazin-1-yl)pyridin-3-yl)-6-(1-methyl-1H-pyrazol-4-yl)pyrazolo[1,5-a]pyridine-3-carbonitrile formate], the IC50 in assay [1] came to 17.7 nM; in assay [2], 678 nM; in assay [3] (wild type RET, 1 mM ATP) it was 9.7 nM.

With `Cn1cc(-c2cc(-c3ccc(N4CCN(CCNC(=O)OC(C)(C)C)CC4)nc3)c3c(C#N)cnn3c2)cn1` [Example 506, tert-butyl (2-(4-(5-(3-cyano-6-(1-methyl-1H-pyrazol-4-yl)pyrazolo[1,5-a]pyridin-4-yl)pyridin-2-yl)piperazin-1-yl)ethyl)carbamate], the IC50 in assay [1] turned out to be 6.5 nM; in assay [2], 212 nM; in assay [3] (wild type RET, 1 mM ATP), 31.3 nM.

`Cn1cc(-c2cc(-c3ccc(N4CCC(O)(C(F)(F)F)CC4)nc3)c3c(C#N)cnn3c2)cn1` [Example 510, 4-(6-(4-hydroxy-4-(trifluoromethyl)piperidin-1-yl)pyridin-3-yl)-6-(1-methyl-1H-pyrazol-4-yl)pyrazolo[1,5-a]pyridine-3-carbonitrile 2,2,2-trifluoroacetate]: the IC50 in assay [1] (setting [4]) was 9.6 nM; in assay [2], 323 nM; in assay [3] it was 6.7 nM.

In the case of `CC(C)N(CCO)C(=O)C1CCN(c2ccc(-c3cc(-c4cnn(C)c4)cn4ncc(C#N)c34)cn2)CC1` [Example 561, 1-(5-(3-cyano-6-(1-methyl-1H-pyrazol-4-yl)pyrazolo[1,5-a]pyridin-4-yl)pyridin-2-yl)-N-(2-hydroxyethyl)-N-isopropylpiperidine-4-carboxamide 2,2,2-trifluoroacetate], the IC50 in assay [1] came to 37.5 nM; in assay [2], 1730 nM; in assay [3] (wild type RET, 1 mM ATP), 23.8 nM.

For the compound `CONC(=O)C1CCN(c2ccc(-c3cc(-c4cnn(C)c4)cn4ncc(C#N)c34)cn2)CC1` [Example 564, 1-(5-(3-cyano-6-(1-methyl-1H-pyrazol-4-yl)pyrazolo[1,5-a]pyridin-4-yl)pyridin-2-yl)-N-methoxypiperidine-4-carboxamide], the IC50 in assay [1] (setting [4]) turned out to be 26.2 nM; in assay [2] it was 740 nM; in assay [3] (wild type RET, 1 mM ATP), 6.4 nM.

For the compound `Cn1cc(-c2cc(-c3ccc(N4CCC(C(=O)NOC(C)(C)C)CC4)nc3)c3c(C#N)cnn3c2)cn1` [Example 565, N-(tert-butoxy)-1-(5-(3-cyano-6-(1-methyl-1H-pyrazol-4-yl)pyrazolo[1,5-a]pyridin-4-yl)pyridin-2-yl)piperidine-4-carboxamide], the IC50 in assay [1] (setting [4]) was 10.3 nM; in assay [2] it was 540 nM; in assay [3] (wild type RET, 1 mM ATP), 6.4 nM.

As for `Cn1cc(-c2cc(-c3ccc(N4CCC(S(C)(=O)=O)CC4)nc3)c3c(C#N)cnn3c2)cn1` [Example 567, 6-(1-methyl-1H-pyrazol-4-yl)-4-(6-(4-(methylsulfonyl)piperidin-1-yl)pyridin-3-yl)pyrazolo[1,5-a]pyridine-3-carbonitrile], the IC50 is 4.9 nM in assay [1]; 198 nM in assay [2]; 3.1 nM in assay [3] (wild type RET, 1 mM ATP).

Take `CC(C)NS(=O)(=O)C1CCN(c2ccc(-c3cc(-c4cnn(C)c4)cn4ncc(C#N)c34)cn2)CC1` [Example 569, 1-(5-(3-cyano-6-(1-methyl-1H-pyrazol-4-yl)pyrazolo[1,5-a]pyridin-4-yl)pyridin-2-yl)-N-isopropylpiperidine-4-sulfonamide]: the IC50 in assay [1] (setting [4]) came to 2.8 nM; in assay [2], 2.2 nM; in assay [3] (wild type RET, 1 mM ATP) it was 6.2 nM.

For the compound `N#Cc1cnn2cc(-c3cnn(C(F)F)c3)cc(-c3ccc(N4CCN(Cc5ccccn5)CC4)nc3)c12` [Example 586, 6-(1-(difluoromethyl)-1H-pyrazol-4-yl)-4-(6-(4-(pyridine-2-ylmethyl)piperazin-1-yl)pyridin-3-yl)pyrazolo[1,5-a]pyridine-3-carbonitrile], the IC50 in assay [1] (setting [4]) was 15.6 nM; in assay [2] it was no less than 5000 nM; in assay [3] (wild type RET, 1 mM ATP), 5.2 nM.

For `N#Cc1cnn2cc(-c3cn[nH]c3)cc(-c3ccc(N4CCN(Cc5ccccc5)CC4)nc3)c12` [Example 591, 4-(6-(4-benzylpiperazin-1-yl)pyridin-3-yl)-6-(1H-pyrazol-4-yl)pyrazolo[1,5-a]pyridine-3-carbonitrile], the IC50 in assay [1] (setting [4]) worked out at 4.1 nM; in assay [2], 1490 nM; in assay [3] (wild type RET, 1 mM ATP), 5.7 nM.

`C[C@@H](CO)Cn1cc(-c2cc(-c3ccc(N4CCN(Cc5ccccc5)CC4)nc3)c3c(C#N)cnn3c2)cn1` [Example 592, (R)-4-(6-(4-benzylpiperazin-1-yl)pyridin-3-yl)-6-(1-(3-hydroxy-2-methylpropyl)-1H-pyrazol-4-yl)pyrazolo[1,5-a]pyridine-3-carbonitrile]: the IC50 turned out to be 17.4 nM in assay [1] (setting [4]); 283 nM in assay [2]; 16.1 nM in assay [3] (wild type RET, 1 mM ATP).

In the case of `C[C@H](CO)Cn1cc(-c2cc(-c3ccc(N4CCN(Cc5ccccc5)CC4)nc3)c3c(C#N)cnn3c2)cn1` [Example 593, (S)-4-(6-(4-benzylpiperazin-1-yl)pyridine-3-yl)-6-(1-(3-hydroxy-2-methylpropyl)-1H-pyrazol-4-yl)pyrazolo[1,5-a]pyridine-3-carbonitrile], the half-maximal inhibitory concentration (IC50) in assay [1] (setting [4]) came to 12.4 nM; in assay [2], 154 nM; in assay [3] (wild type RET, 1 mM ATP), 13.3 nM.

For the compound `CCC1(C(=O)NC(C)C)CCN(c2ccc(-c3cc(-c4cnn(C)c4C)cn4ncc(C#N)c34)cn2)CC1` [Example 597, 1-(5-(3-cyano-6-(1,5-dimethyl-1H-pyrazol-4-yl)pyrazolo[1,5-a]pyridin-4-yl)pyridin-2-yl)-4-ethyl-N-isopropylpiperidine-4-carboxamide], the half-inhibitory concentration (IC50) in assay [1] (setting [4]) came out at 39.7 nM; in assay [2] it was 830 nM; in assay [3] (wild type RET, 1 mM ATP), 34 nM.

Consider `CCC1(C(=O)NC(C)C)CCN(c2ccc(-c3cc(-c4cn(C)nc4C)cn4ncc(C#N)c34)cn2)CC1` [Example 599, 1-(5-(3-cyano-6-(1,3-dimethyl-1H-pyrazol-4-yl)pyrazolo[1,5-a]pyridin-4-yl)pyridin-2-yl)-4-ethyl-N-isopropylpiperidine-4-carboxamide], for which the IC50 was 16.5 nM in assay [1] (setting [4]); 4860 nM in assay [2]; 27.6 nM in assay [3] (wild type RET, 1 mM ATP).
